In assay [1] the target is T1, CD73 enzymatic activity expressed on the cell surface of MDA-MB-231 cells (Homo sapiens, UniProt P21589).
T1 construct: Human breast cancer cells MDA-MB-231 that endogenously express CD73 were used; host or cells: MDA-MB-231
T1 sequence (P21589 27-549): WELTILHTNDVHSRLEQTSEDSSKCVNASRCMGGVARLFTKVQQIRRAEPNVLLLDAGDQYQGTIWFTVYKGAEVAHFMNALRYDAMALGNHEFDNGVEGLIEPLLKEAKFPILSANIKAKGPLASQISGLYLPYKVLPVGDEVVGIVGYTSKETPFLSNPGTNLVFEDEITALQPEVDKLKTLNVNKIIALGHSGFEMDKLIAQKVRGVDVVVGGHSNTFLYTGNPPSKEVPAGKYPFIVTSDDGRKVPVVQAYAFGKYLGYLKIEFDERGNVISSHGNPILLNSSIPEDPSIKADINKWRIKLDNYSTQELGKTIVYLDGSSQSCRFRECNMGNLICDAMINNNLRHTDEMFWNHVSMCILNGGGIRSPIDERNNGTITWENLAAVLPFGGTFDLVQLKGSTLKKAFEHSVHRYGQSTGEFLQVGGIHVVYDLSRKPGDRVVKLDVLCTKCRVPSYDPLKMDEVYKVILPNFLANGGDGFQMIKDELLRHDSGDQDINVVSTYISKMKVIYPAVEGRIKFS
Briefly: Inhibition of CD73 enzymatic activity on the cell surface (Cell Titer Glo (CTG) experiment), MDA-MB-231 cells. The assay is classed as cell-based. Conditions: MDA-MB-231 cells endogenously expressing CD73, AMP, 37° C. for 2 hours, CTG readout; read-out: Cellular activity IC50. In short, it runs like this: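 MDA-MB-231 cells with endogenous CD73 were washed serum-free, preincubated with compound for 15 min, then given AMP (1.2 mM stock) for 2 h at 37° C. Remaining AMP in the supernatant was read by CellTiter-Glo with added ATP. IC50 came from a four-parameter logistic fit.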
Background: In ATP-based viability assays light output follows the ATP content of the culture.

The target in a further assay is T2, CD73 (Homo sapiens, UniProt P21589).
T2 construct: purchased R&D systems 5795-EN-010
T2 sequence (P21589 27-547 limits assumed): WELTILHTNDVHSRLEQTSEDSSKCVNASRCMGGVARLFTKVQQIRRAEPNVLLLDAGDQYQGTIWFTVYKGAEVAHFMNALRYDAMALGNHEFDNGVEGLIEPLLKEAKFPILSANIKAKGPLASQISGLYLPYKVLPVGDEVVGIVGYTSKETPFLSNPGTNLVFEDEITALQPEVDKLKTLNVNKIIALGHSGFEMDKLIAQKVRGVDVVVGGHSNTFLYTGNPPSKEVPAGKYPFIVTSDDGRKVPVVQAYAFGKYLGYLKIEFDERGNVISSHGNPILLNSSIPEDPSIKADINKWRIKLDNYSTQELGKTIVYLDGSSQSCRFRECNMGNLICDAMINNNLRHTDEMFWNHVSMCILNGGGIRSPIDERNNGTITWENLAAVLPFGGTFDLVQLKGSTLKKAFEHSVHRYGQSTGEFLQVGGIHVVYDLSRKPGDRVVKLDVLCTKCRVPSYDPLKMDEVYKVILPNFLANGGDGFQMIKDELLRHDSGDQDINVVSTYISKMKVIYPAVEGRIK
As to the kind of experiment: In vitro enzymatic activity against CD73 (malachite green test using soluble CD73). In kind it is biochemical. Conditions: soluble CD73 36 ng/mL, 50 μM AMP, 30 minutes at 25° C. In short, it runs like this: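 Soluble recombinant CD73 (36 ng/mL) incubated with compound and 50 μM AMP for 30 min at 25 °C in 25 mM Tris pH 7.5, 5 mM MgCl2, 0.005% Tween-20. Released inorganic phosphate read by malachite green; IC50 from non-linear regression of % inhibition.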

Among the data in patent publication US12157755B2, “CD73 inhibitor, preparation method therefor and application thereof” (Abbisko Therapeutics Co., Ltd., priority 2019, dated 2024) are IC50 values, retold here.

A word on the IC50: it is the concentration needed to halve the response being measured.

For `O=P(O)(O)CP(=O)(O)OC[C@H]1C[C@@H](c2ccc3c(N[C@H]4CCc5cc(Cl)ccc54)nc(Cl)nn23)[C@H](O)[C@@H]1O` [Example 37, (((((1R,2R,3S,4S)-4-(2-chloro-4-(((S)-5-chloro-2,3-dihydro-1H-inden-1-yl)amino)pyrrolo[2,1-f][1,2,4]triazin-7-yl)-2,3-dihydroxycyclopentyl)methoxy)(hydroxy)phosphoryl)methyl)phosphonic acid], the figures for the IC50 (in assay [1]; against CD73) were 60 nM and > 1000 nM, respectively.
The matching figures for `O=P(O)(O)CP(=O)(O)OC[C@H]1C[C@@H](c2ccc3c(N[C@@H]4CCc5cc(Cl)ccc54)nc(Cl)nn23)[C@H](O)[C@@H]1O` [Example 38, (((((1R,2R,3S,4S)-4-(2-chloro-4-(((R)-5-chloro-2,3-dihydro-1H-inden-1-yl)amino)pyrrolo[2,1-f][1,2,4]triazin-7-yl)-2,3-dihydroxycyclopentyl)methoxy)(hydroxy)phosphoryl)methyl)phosphonic acid]: 0.266 nM and 7.8 nM.
In the same order, the values of `O=P(O)(O)CP(=O)(O)OC[C@H]1C[C@@H](c2ccc3c(N[C@@H]4CCc5cc(C(F)(F)F)ccc54)nc(Cl)nn23)[C@H](O)[C@@H]1O` [Example 39, (((((1R,2R,3S,4S)-4-(2-chloro-4-(((R)-5-(trifluoromethyl)-2,3-dihydro-1H-inden-1-yl)amino)pyrrolo[2,1-f][1,2,4]triazin-7-yl)-2,3-dihydroxycyclopentyl)methoxy)(hydroxy)phosphoryl)methyl)phosphonic acid] are 0.743 nM and 63 nM.
